Results reported in patent US20110178171A1, “COMPOUNDS FOR CANCER THERAPY” (China Medical University, priority 2010, published 2011).

How the values were obtained:
PC3 cells = experiment: MTT growth inhibition assay, PC3; format: cell-based, human; details: for Viability (%) PC-3: 24 h (Table 2)
Protocol: The LNCaP (androgen-sensitive), PC3 (androgen in-dependent), human prostate cancer and normal human fibroblast 3T3 were obtained from American Type Culture Collection (Manassas, Va.) were maintained with RPMI 1640 medium containing 10% FBS and […] each of penicillin and streptomycin at […] in a humidified atmosphere with 5% CO2.
The viability of the cells after treated with various chemicals was evaluated using MTT assay preformed in triplicate (Mosmann T. 1983. Rapid colorimetric assay for cellular growth and survival: application to proliferation and cytotoxicity assays”. Journal of immunological methods. 65 (1-2): 55-63). Briefly, the cancer cells (5×10^3) were incubated in 96-well plates containing […] of the culture medium. Cells were permitted to adhere for 12-18 h then washed with phosphate buffered saline (PBS). Solutions were always prepared fresh by dissolving 0.2% DMSO or K8 in culture medium and added to various kind of tumor. After 48 h of exposure, K8 containing medium was removed, washed with PBS and replaced by fresh medium. The cells in each well were then incubated in culture medium with […] MTT for 4 h. After the medium were removed, […] of DMSO and […] of glycine buffer (0.1 M glycine, 0.1 M NaCl, pH 10.5) were added to each well. Absorbance at 570 nm of the maximum was detected by a PowerWave X Microplate ELISA Reader (Bio-TeK Instruments, Winoski, Vt.). The absorbance for DMSO treated cells was considered as 100%. The results were determined by three independent experiments.
Cytotoxicities of Z-K8 (Isochaihulactone) on LNCaP (AR-dependent), and PC3 (AR-independent) tumor cell line were examined in the manner described above. […]

[1] = system: oral cancer cell line OECM-1; experiment: MTT growth inhibition assay, OECM-1; format: cell-based; details: OECM-1, oral squamous cell carcinoma
Protocol: The results were determined by three independent experiments.
Besides, the above assay was also conducted on gastric cancer cell line NCI-N87, liver cancer cell line HepG2 and J5, lung cancer cell line A549, and oral cancer cell line OECM-1.

caspase-3 = experiment: Caspase-3 activity for apoptosis detection (Caspase-Glo); format: cell-based, human; details: LNCaP cells, 24 h
Protocol: In General, drug can cause tumor apoptosis mediated activate caspase-3 leading to release fluoresce dye to detect by machine. Caspase-3 activity was measured using testis supernatants with the Caspase-Glo Assay System (Promega, Madison, Wis.) according to the manufacturer's instructions. Briefly, 50 μl of the Caspase-Glo buffer was added to 50 μl of tissue supernatants in a 96-well plate and incubated at room temperature for 60 minutes. Luminescence was measured using a Biotek synergy microplate reader (Biotek, Winooski, Vt.). Background activity levels, based on measurements in homogenization buffer only, were measured and subtracted from values in the testis tissue supernatants. All values were normalized to total protein content. Standard curves were used to determine the linearity of the responses.
Assays were carried out to examine whether K8 (Isochaihulactone) increases LNCaP cells caspase-3 activity which leads to tumor cell apoptosis. Briefly, LNCaP cells were treated with different concentrations of Z-K8 (0.25 to 4 μM) for 24 h. […] Thus, Z-K8 can be used in the treatment of prostate cancer.

AR = experiment: RT-PCR analysis of AR expression; format: cell-based, human
Protocol: (§1) Total RNA from LNCaP, PC3, 3T3 cells was isolated as described above. cDNA was synthesized by reverse transcription of 2 μg of total RNA using oligo(dT)12-18 and SuperScript II RNA reverse transcriptase (Invitrogen). The cDNA was then used as the template to amplify the corresponding DNA fragments by PCR using two sets of synthetic oligonucleotide primers. DNA amplification was performed by PCR with the Thermocycler 2400 (PerkinElmer Life and Analytical Sciences, Boston, Mass.) using the following parameters: 35 cycles of denaturing at 95° C. for 1 min, annealing at 60° C. for 1 min, and extension at 72° C. for 2 min. Primers used for the AR PCR amplifications are (F): 5′-ATGGTGAGCAGAGTGCCCTA-3′ (SEQ ID NO: 1) (R): 5′-GTGGTGCTGGAAGCCTCTCCT-3′ (SEQ ID NO: 2) PSA (F) 5′-GGTGACCAAGTTCATGCTGTG-3′ (SEQ ID NO: 3) (R) 5′-GTGTCCTTGATCCACTTCCG-3′ (SEQ ID NO: 4) products were separated on 2% agarose gels, stained with ethidium bromide, and visualized using the Fluor Chem imaging system (Alpha InnoTech, San Leandro, Calif.), and levels of glyceraldehyde-3-phosphate dehydrogenase were used as the control.
(§2) RT-PCR was conducted to examine the effect of Z-K8 on several human cancer cells. Briefly, the cells were treated with Z-K8 (0.5 μM to 2 μM) or Luteolin (as a positive control) for 24 h. […]

PSA = experiment: RT-PCR analysis of PSA expression; format: cell-based; details: human cancer cells, 0.5 μM to 2 μM, 24 h, dose-dependent (FIG. 3A)
Protocol: as §1, §2

cleaved caspase-3 = experiment: Immunohistochemical staining of xenograft tumors, cleaved caspase-3; format: in vivo; details: mice treated with 30 mg/kg (FIG. 8A)
Protocol: Mice xenograft tissue samples were fixed in 10% formalin and embedded in paraffin. After routine rehydration, antigen retrieval and blocking, the sections were incubated in the primary antibody at 4° C. overnight. The primary antibody was recognized by the biotinylated secondary antibody and visualized by vectastain avidin-biotin complex peroxidase system (ABC kit) as well as peroxidase substrate 3,3′-diaminobenzidine kit (DAB kit).
Immunohistochemical staining was conducted using a cleaved caspase-3-specific antibody. […] Similar staining was carried our using an AR-specific antibody.

COc1cc(/C=C2\C(=O)OCC2Cc2ccc3c(c2)OCO3)cc(OC)c1OC (racemic) [Z-K8, Racemic (Z)-β-(3′,4′-Methylenedioxybenzyl)-α-(3′,4′,5′-trimethoxybenzylidene)-γ-butyrolactone]
Viability (%) PC-3 (PC3 cells; 0.625 μM): 92.0%
Viability (%) PC-3 (PC3 cells; 1.25 μM): 84.5%
Viability (%) PC-3 (PC3 cells; 2.5 μM): 74.9%
Viability (%) PC-3 (PC3 cells; 5 μM): 44.9%
Viability (%) PC-3 (PC3 cells; 10 μM): 28.3%
IC50 (PC3 cells; PC3, androgen-independent prostate adenocarcinoma): 100 µM
IC50 [1]: 1 µM
Caspase-3 Relative activity (caspase-3; 0.25 μM): 1.347
Caspase-3 Relative activity (caspase-3; 0.5 μM): 1.274
Caspase-3 Relative activity (caspase-3; 1 μM): 1.784
Caspase-3 Relative activity (caspase-3; 2 μM): 2.399
Caspase-3 Relative activity (caspase-3; 4 μM): 6.604
AR expression over time (RT-PCR) (AR; LNCaP cells, 1 μM, different times (FIG. 3B)): decreased AR expression in a time-dependent manner
AR expression (RT-PCR) (AR; human cancer cells, 0.5 μM to 2 μM, 24 h, dose-dependent (FIG. 3A)): down regulated
PSA expression (RT-PCR) (PSA): down regulated
expression of cleaved caspase-3 in tumors (IHC) versus control (cleaved caspase-3): increased more
